According to patent publication US20240174647A1 (NEURON23, INC., priority 2022, published 2024):

biological target: wt human LRRK2, catalytic site (Homo sapiens (Human), UniProt Q5S007); assay: TR-FRET LanthaScreen Tb Kinase Activity Assay (LRRK2 kinase inhibition); type: biochemical; settings: 2 nM wt human LRRK2, 400 nM fluorescein-ERM (LRRKtide) peptide, 38 μM ATP, 120 minutes at room temperature
In short: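 LanthaScreen TR-FRET with 2 nM wt human LRRK2 catalytic site, 400 nM fluorescein-ERM (LRRKtide) peptide and 38 µM ATP in Kinase Buffer A; 120 min at room temperature. Phosphorylation detected with EDTA and Tb-anti-pLRRKtide after 60 min; IC50 from emission ratios.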

Sequence of wt human LRRK2, catalytic site (Q5S007 1879-2138): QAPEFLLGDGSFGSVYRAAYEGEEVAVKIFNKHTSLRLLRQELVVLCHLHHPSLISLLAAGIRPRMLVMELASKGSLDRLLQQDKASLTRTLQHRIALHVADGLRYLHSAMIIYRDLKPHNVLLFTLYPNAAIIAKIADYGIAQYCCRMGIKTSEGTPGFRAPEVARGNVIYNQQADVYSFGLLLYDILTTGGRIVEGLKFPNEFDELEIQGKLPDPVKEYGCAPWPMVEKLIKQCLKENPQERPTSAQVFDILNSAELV

Row | Compound | IC50 [nM]
1 | CNc1nc(Nc2cccc3c2CC(=O)N3)ncc1C(F)(F)F [Example 127, 4-[[4-(methylamino)-5-(trifluoromethyl)pyrimidin-2-yl]amino]indolin-2-one] | < 50
2 | CNc1cc(Nc2nn(C)c3ncncc23)ncc1C(F)(F)F [Example 128, N^4-methyl-N^2-(1-methyl-1H-pyrazolo[3,4-d]pyrimidin-3-yl)-5-(trifluoromethyl)pyridine-2,4-diamine] | 50 to 200
3 | CNc1nc(Nc2cc3[nH]ncc3cc2OC(F)(F)F)ncc1C(F)(F)F [Example 129, N4-methyl-N2-[5-(trifluoromethoxy)-1H-indazol-6-yl]-5-(trifluoromethyl) pyrimidine-2,4-diamine] | < 50
4 | CNc1nc(Nc2cccn3cncc23)ncc1C(F)(F)F [Example 130, N^2-(imidazo[1,5-a]pyridin-8-yl)-N^4-methyl-5-(trifluoromethyl)pyrimidine-2,4-diamine] | < 50
5 | CNc1nc(Nc2cn(CC#N)c3cnccc23)ncc1C(F)(F)F [Example 131, 2-[3-[[4-(methylamino)-5-(trifluoromethyl)pyrimidin-2-yl]amino]pyrrolo[2,3-c]pyridin-1-yl]acetonitrile] | < 50
6 | O=S(=O)(C1CC1)n1ncc2c(Nc3ncc(C(F)(F)F)c(C4CC4)n3)cccc21 [Example 132, N-(4-cyclopropyl-5-(trifluoromethyl)pyrimidin-2-yl)-1-(cyclopropylsulfonyl)-1H-indazol-4-amine] | 50 to 200
7 | COCCn1ncc2c(Nc3ncc(C(F)(F)F)c(NC4CC4)n3)cccc21 [Example 133, N^4-cyclopropyl-N^2-[1-(2-methoxyethyl)indazol-4-yl]-5-(trifluoromethyl) pyrimidine-2,4-diamine] | < 50
8 | FC(F)Cn1ncc2c(Nc3ncc(C(F)(F)F)c(NC4CC4)n3)cccc21 [Example 134, N^4-cyclopropyl-N2-[1-(2,2-difluoroethyl)indazol-4-yl]-5-(trifluoromethyl) pyrimidine-2,4-diamine] | < 50
9 | CC(C)S(=O)(=O)n1ncc2c(Nc3ncc(C(F)(F)F)c(NC4CC4)n3)cccc21 [Example 135, N^4-cyclopropyl-N^2-(1-isopropylsulfonylindazol-4-yl)-5-(trifluoromethyl) pyrimidine-2,4-diamine] | < 50
10 | COCCS(=O)(=O)n1ncc2c(Nc3ncc(C(F)(F)F)c(NC4CC4)n3)cccc21 [Example 136, N^4-cyclopropyl-N^2-(1-((2-methoxyethyl)sulfonyl)-1H-indazol-4-yl)-5-(trifluoromethyl)pyrimidine-2,4-diamine] | < 50
11 | O=S(=O)(C1CC1)n1ncc2c(Nc3ncc(C(F)(F)F)c(NCCF)n3)cccc21 [Example 137, N^2-(1-(cyclopropylsulfonyl)-1H-indazol-4-yl)-N^4-(2-fluoroethyl)-5-(trifluoromethyl) pyrimidine-2,4-diamine] | < 50
12 | CS(=O)(=O)CCNc1nc(Nc2cccc3c2cnn3S(=O)(=O)C2CC2)ncc1C(F)(F)F [Example 138, N^2-(1-(cyclopropylsulfonyl)-1H-indazol-4-yl)-N^4-(2-(methylsulfonyl)ethyl)-5-(trifluoromethyl)pyrimidine-2,4-diamine] | < 50
13 | CS(=O)(=O)CCn1ncc2c(Nc3ncc(C(F)(F)F)c(NC4CC4)n3)cccc21 [Example 139, N^4-cyclopropyl-N^2-(1-(2-(methylsulfonyl)ethyl)-1H-indazol-4-yl)-5-(trifluoromethyl)pyrimidine-2,4-diamine] | < 50
14 | COCCn1ncc2c(Nc3ncc(C(F)(F)F)c(NC(C)C)n3)cccc21 [Example 140, N^4-isopropyl-N^2-[1-(2-methoxyethyl)indazol-4-yl]-5-(trifluoromethyl)pyrimidine-2,4-diamine] | < 50
15 | OCCNc1nc(Nc2cccc3c2cnn3CC(F)F)ncc1C(F)(F)F [Example 141, 2-[[2-[[1-(2,2-difluoroethyl)indazol-4-yl]amino]-5-(trifluoromethyl)pyrimidin-4-yl]amino]ethanol] | < 50
16 | FCCNc1nc(Nc2cccc3c2cnn3CC(F)F)ncc1C(F)(F)F [Example 142, N^2-[1-(2,2-difluoroethyl)indazol-4-yl]-N^4-(2-fluoroethyl)-5-(trifluoromethyl) pyrimidine-2,4-diamine] | < 50
17 | CCS(=O)(=O)n1ncc2c(Nc3ncc(C(F)(F)F)c(NC4CC4)n3)cccc21 [Example 143, N^4-cyclopropyl-N^2-(1-ethylsulfonylindazol-4-yl)-5-(trifluoromethyl)pyrimidine-2,4-diamine] | < 50
18 | CC(C)(C#N)n1ncc2c(Nc3ncc(C(F)(F)F)c(NCCF)n3)cccc21 [Example 144, 2-(4-((4-((2-fluoroethyl)amino)-5-(trifluoromethyl)pyrimidin-2-yl)amino)-1H-indazol-1-yl)-2-methylpropanenitrile] | < 50

Row | Compound | IC50 [nM]
19 | COCCNc1nc(Nc2cccc3c2cnn3S(=O)(=O)C2CC2)ncc1C(F)(F)F [Example 145, N^2-(1-cyclopropylsulfonylindazol-4-yl)-N^4-(2-methoxyethyl)-5-(trifluoromethyl) pyrimidine-2,4-diamine] | < 50
20 | CC(C)(O)Cn1ncc2c(Nc3ncc(C(F)(F)F)c(NC4CC4)n3)cccc21 [Example 146, 1-[4-[[4-(cyclopropylamino)-5-(trifluoromethyl)pyrimidin-2-yl]amino]indazol-1-yl]-2-methyl-propan-2-ol] | < 50
21 | CCNc1nc(Nc2cccc3c2cnn3CC(F)F)nc2[nH]cc(Cl)c12 [Example 147, 5-chloro-N^2-(1-(2,2-difluoroethyl)-1H-indazol-4-yl)-N^4-ethyl-7H-pyrrolo[2,3-d]pyrimidine-2,4-diamine] | < 50
22 | CS(=O)(=O)n1ncc2c(Nc3ncc(C(F)(F)F)c(N[C@@H]4CCOC4)n3)cccc21 [Example 148, (R)—N^2-(1-(methylsulfonyl)-1H-indazol-4-yl)-N-(tetrahydrofuran-3-yl)-5-(trifluoromethyl)pyrimidine-2,4-diamine] | < 50
23 | CS(=O)(=O)n1ncc2c(Nc3ncc(C(F)(F)F)c(N[C@H]4CCOC4)n3)cccc21 [Example 149, (S)—N^2-(1-(Methylsulfonyl)-1H-indazol-4-yl)-N^4-(tetrahydrofuran-3-yl)-5-(trifluoromethyl)pyrimidine-2,4-diamine] | < 50
24 | CS(=O)(=O)n1ncc2c(Nc3ncc(C(F)(F)F)c(NC4CCC4)n3)cccc21 [Example 150, N^4-cyclobutyl-N^2-(1-methylsulfonylindazol-4-yl)-5-(trifluoromethyl)pyrimidine-2,4-diamine] | < 50
25 | CCNc1nc(Nc2cccc3c2cnn3S(C)(=O)=O)nc2[nH]cc(Cl)c12 [Example 151, 5-chloro-N^4-ethyl-N^2-(1-methylsulfonylindazol-4-yl)-7H-pyrrolo[2,3-d]pyrimidine-2,4-diamine] | < 50
26 | CCNc1nc(Nc2cccc3c2cnn3S(C)(=O)=O)ncc1Cl [Example 152, 5-chloro-N4-ethyl-N^2-(1-(methylsulfonyl)-1H-indazol-4-yl)pyrimidine-2,4-diamine] | < 50
27 | O=S(=O)(C1CC1)n1ncc2c(Nc3ncc(C(F)(F)F)c(NC4CC4)n3)ccc(F)c21 [Example 153, N^4-cyclopropyl-N^2-(1-(cyclopropylsulfonyl)-7-fluoro-1H-indazol-4-yl)-5-(trifluoromethyl) pyrimidine-2,4-diamine] | < 50
28 | CCNc1nc(Nc2cccc3c2cnn3C(C)(C)C#N)ncc1C(F)(F)F [Example 154, 2-(4-((4-(ethylamino)-5-(trifluoromethyl)pyrimidin-2-yl)amino)-1H-indazol-1-yl)-2-methylpropanenitrile] | < 50
29 | COCCNc1nc(Nc2cccc3c2cnn3C(C)(C)C#N)ncc1C(F)(F)F [Example 155, 2-[4-[[4-(2-methoxyethylamino)-5-(trifluoromethyl)pyrimidin-2-yl]amino]indazol-1-yl]-2-methyl-propanenitrile] | < 50
30 | CCNc1nc(Nc2cccc3c2cnn3C(C)(C)C#N)nc2[nH]cc(Cl)c12 [Example 156, 2-(4-((5-chloro-4-(ethylamino)-7H-pyrrolo[2,3-d]pyrimidin-2-yl)amino)-1H-indazol-1-yl)-2-methylpropanenitrile] | < 50
31 | CC(C)(C#N)n1ncc2c(Nc3ncc(C(F)(F)F)c(NC4CC(O)C4)n3)cccc21 (stereo not drawn) [Example 157, 2-[4-[[4-[(3-hydroxycyclobutyl)amino]-5-(trifluoromethyl)pyrimidin-2-yl]amino]indazol-1-yl]-2-methyl-propanenitrile] | < 50
32 | CCOc1nc(Nc2cccc3c2cnn3S(C)(=O)=O)nc2[nH]cc(Cl)c12 [Example 158, 5-chloro-4-ethoxy-N-(1-methylsulfonylindazol-4-yl)-7H-pyrrolo [2,3-d]pyrimidin-2-amine] | < 50
33 | O=S(=O)(C1CC1)n1ncc2c(Nc3ncc(C(F)(F)F)c(NC4CC4)n3)ccnc21 [Example 159, N^4-cyclopropyl-N^2-(1-(cyclopropylsulfonyl)-1H-pyrazolo[3,4-b]pyridin-4-yl)-5-(trifluoromethyl)pyrimidine-2,4-diamine] | < 50
34 | FC(F)(F)c1cnc(Nc2ccc3c4c2cnn4CCCO3)nc1NC1CC1 [Example 160, N^4-cyclopropyl-N^2-(9-oxa-1,2-diazatricyclo[6.4.1.04,13]trideca-2,4,6,8(13)-tetraen-5-yl)-5-(trifluoromethyl)pyrimidine-2,4-diamine] | < 50
35 | CNc1nc(Nc2ccc3c4c2cnn4CCCO3)ncc1C(F)(F)F [Example 161] | < 50
36 | CCOc1nc(Nc2cccc3c2cnn3C(C)(C)C#N)nc2[nH]cc(Cl)c12 [Example 162, 2-[4-[(5-chloro-4-ethoxy-7H-pyrrolo[2,3-d]pyrimidin-2-yl)amino]indazol-1-yl]-2-methyl-propanenitrile] | < 50
